Assay results taken from patent US5902789A, “Nasal administration of drugs” (Fisons Corporation, priority 1995, dated 1999).

Key:
[1] = cited from earlier work
[2] = Example II irritation studies of nasal spray solutions without insulin (10 days); assay type: in vivo, human; settings: longer than 5 days, polysorbate-80 added to nasal spray solution
Procedure: Chronic irritation studies, i.e., longer than 5 days, using polysorbate-80 according to the present invention have also been carried out.
Studies were carried out to determine the effect on nasal irritation of the addition of varying amounts of polysorbate-80 to nasal spray solutions containing N-9. […] In each study ten normal subjects were treated with one squirt (about 0.15 ml) of the nasal spray solution three times a day for ten consecutive days. After administration, the subjects were questioned about any symptoms and findings recorded. The nasal passages were examined on the fifth and tenth days of treatment by an ENT ([…], nose and throat) specialist and findings recorded.
The nasal spray solutions used in the study comprised 1% of a mixture of polysorbate-80:N-9, 1:9, wt:wt; 0.5% of a mixture of polysorbate-80:N-9, 1:9, wt:wt; 0.25% of a mixture of polysorbate-80:N-9, 1:9, wt:wt; 1% of a mixture of polysorbate-80:N-9, 1:3, wt:wt; 0.5% of a mixture of polysorbate-80:N-9, 1:3, wt:wt; 0.25% of a mixture of polysorbate-80:N-9, 1:3, wt:wt; 0.1% N-9 or a saline placebo. All of the nasal spray solutions produced minor changes in nasal mucosa and minor symptomatic complaints but the number encountered with 0.5% P-80:N-9, 1:9, and 0.5% P-80:N-9:1:3 (4 out of 10 subjects in each group) most closely paralleled the saline placebo (7 out of 20 subjects).

Substance | promotion of insulin absorption ([1]; 0.1% laureth-9, nasally) | absorption of nasally administered insulin ([1]; humans) | tolerability of nasal administration ([1]; laureth-9 at 0.1% by weight, nasally) | nasal irritation accompanying administration ([1]; nasally administered insulin in humans, effects proportional to laureth-9 concentration) | chronic irritation [2]
laureth-9 | only moderately effective | enhanced absorption | tolerated by all subjects tested | often accompanied by nasal irritation such as stinging, congestion and rhinorrhea | 
polysorbate-80 |  |  |  |  | reduces chronic irritation
